According to patent publication US20230330234A1, “HYPERBRANCHED POLYESTER POLYOL DERIVATIVE AS DRUG SOLUBILIZER” (FREIE UNIVERSITÄT BERLIN, priority 2020, published 2023):
≈ marks a conversion by molar mass, not a printed value. One block for each molecule: values may come before it.

Key:
[1] = Carrying potential of h(PG-co-PCL)60S0.95 by UV-VIS; assay type: physicochemical; conditions: calculated by UV
Description: For drugs presenting an absorption band at wavelength higher than 400 nm, UV-VIS analysis is chosen as quantification method. First, a calibration curve of the free drug in the suitable solvent mixture is recorded. Suitable combinations of solvent include mixtures of water and methanol, as well as of water and ethanol, in both cases in a ratio falling in a range of from 40 to 60% to 20 to 80%.
The calibration curve is prepared with at least 5 points, in a concentration range depending on the drug to be quantified. Linear regression is applied to generate the equation of the straight-line necessary to calculate the drug content.
The formulation is afterwards dissolved in the same medium and an UV-VIS spectrum is recorded. It is possible to use a straight-line equation to get the concentration of drug in solution. Knowing the total volume of the formulation, the content of drug, in mg, can be calculated.
(§1) The carrying potential (CP) of the polymer (solubilizing agent) is obtained as the ratio of the loaded and solubilized drug to the amount of solubilizing agent (Eq. 1).
(§2) The following tables (Table 5, Table 6 and Table 7) show the results of the performed analyses. In this context, h(PG-co-PCL)60S0.95 was used as hyperbranched polyester polyol derivative. Its non-sulfated backbone has a molecular weight of 60 kDa. The polyester polyol derivative has a sulfation degree of 95%.

[2] = Solubility in water
[3] = Solubility in aqueous solution of the hyperbranched polyester polyol derivative;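 note: drug added to a previously prepared clear aqueous solution of the solubilizing polymer, stirred 18 h at room temperature in the dark, then centrifuged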
[4] = physchem; conditions: water
[5] = physchem; conditions: aqueous with cosolvent or surfactant or cyclodextrin, thermodynamic from solid
[6] = tested on: HeLa cells; assay: Cell viability experiment (toxicity) in HeLa cells; assay type: cell-based; conditions: Homo sapiens, free drug solubilized in DMSO vs drug solubilized in sulfated polyester polyol
[7] = Carrying potential of h(PG-co-PCL)60S0.95 by elemental analysis; assay type: physicochemical; conditions: calculated by elemental analysis
Text: as §1
For drugs presenting an absorption band at wavelength lower than 400 nm, the UV-VIS approach is not suitable, due to drug signals overlapping with signals of the solubilizing agent. Therefore, elemental analysis is chosen as alternative approach. The drugs chosen for the solubilization and entrapment contain nitrogen atoms, which are not present in the polymer structure. Via the quantification of the nitrogen content in the sample, it is possible to determine the amount of drug in it. For the loading quantification, the same equation is used as in the previous case.
as §2

[8] = tested on: KB-V1 cells; assay: Cell viability experiment (toxicity) in KB-V1 cells; assay type: cell-based; conditions: Homo sapiens, free drug solubilized in DMSO vs drug solubilized in sulfated polyester polyol
[9] = Size and Z-potential investigation by DLS in PB; assay type: physicochemical; conditions: h(PG-co-PCL)60S0.95 with solubilized drug
Text: The following tables (Table 5, Table 6 and Table 7) show the results of the performed analyses. In this context, h(PG-co-PCL)60S0.95 was used as hyperbranched polyester polyol derivative. Its non-sulfated backbone has a molecular weight of 60 kDa.

Solubility in water [2]: 1 µg/mL (≈ 1.78 µM) | Solubility in aqueous polymer solution [3]: >300 µg/mL
SMILES: CC(C)(C)C[C@@H]1N[C@@H](C(=O)N[C@H]2CC[C@H](O)CC2)[C@H](c2cccc(Cl)c2F)[C@]12C(=O)Nc1cc(Cl)ccc12 [MI-773]

solubility [4]: 1 µg/mL (≈ 1.21 µM) | solubility [5]: > 300 µg/mL
SMILES: Cc1c(-c2c(-c3ccc(F)o3)sc3ncnc(O[C@H](Cc4ccccc4OCc4ccnn4CC(F)(F)F)C(=O)O)c23)ccc(OCCN2CCN(C)CC2)c1Cl [S63845]

The remaining lines, values behind:

SMILES: CNCc1ccc(-c2cc(-c3nc(-c4ccc(S(=O)(=O)C(C)C)cc4)cnc3N)on2)cc1 [Berzosertib]
Carrying potential [1]: 10% wt %

SMILES: [2H]c1nc(C)nc([2H])c1-c1cc(NC[C@@H](C)c2cccc3c(C(=O)NC)ccnc23)ncn1 [M9831/VX-984]
Carrying potential [1]: 10% wt %

SMILES: CN[C@@H]1C[C@H]2O[C@@](C)([C@@H]1OC)n1c3ccccc3c3c4c(c5c6ccccc6n2c5c31)C(=O)NC4 [Staurosporin]
Solubility in water [2]: 40 µg/mL (≈ 85.7 µM) | Solubility in aqueous polymer solution [3]: >300 µg/mL

SMILES: CCN(CC)CCNC(=O)c1c(C)[nH]c(/C=C2\C(=O)Nc3ccc(F)cc32)c1C [Sunitinib]
IC50 [6]: 3.52 µg/mL (≈ 8.84 µM) | solubility ([2]; Solubility in water): 30 µg/mL (≈ 75.3 µM) | Carrying potential [1]: 11% wt % | Carrying potential [7]: 8.7%^ wt % | IC50 [8]: 1.95 µg/mL (≈ 4.9 µM) | solubility at 18 h [5]: > 300 µg/mL

SMILES: CC(=O)Nc1cccc(-n2c(=O)n(C3CC3)c(=O)c3c(Nc4ccc(I)cc4F)n(C)c(=O)c(C)c32)c1 [Trametinib]
Carrying potential [7]: 2% wt % | solubility [4]: 30 µg/mL (≈ 48.7 µM) | solubility at 18 h [5]: > 300 µg/mL | Size (volume) ([9]; DLS in PB, in nm (unit assumed)): 14 ± 2 | Z-potential ([9]; in PB, in mV (unit assumed)): −18.9
